How the values were obtained:
[1] = target: T1, pseudolysin (PLN) (Pseudomonas aeruginosa, UniProt P14756); experiment: Inhibition of pseudolysin (PLN), substrate McaRPPGFSAFK(Dnp)-OH; assay type: biochemical
T1 construct: purchased Calbiochem (San Diego, CA, USA)
Description: McaPLGL(Dpa)AR-NH2 was used as a substrate for MMP-9 and MMP-14, while McaRPPGFSAFK(Dnp)-OH was used as substrate for ALN, PLN and TLN. The reaction velocities/initial rates (v) were determined at 37 °C, at an excitation wavelength of 320 nm and an emission wavelength of 405 nm with a slit width of 10 nm using either a Perkin Elmer LS 50 Luminescence spectrometer and the FL WinLab Software Package (Perkin Elmer) or a Clario Star microplate reader (CLARIOstar® BMG LABTECH).
The test compounds were dissolved in 100% DMSO giving a concentration of 10 mM. A fixed substrate concentration of 4.0 µM in a total volume of 100 µL 0.1 M Hepes pH 7.5, 10 mM CaCl2, 0.005% Brij-35 and 1.0% DMSO, were used in all assays, except for ALN where the substrate concentration was 5.0 µM. The fixed enzyme concentrations were as follows; 0.05 nM MMP-9, 1.0 nM MMP-14, 1.4 nM ALN, 0.5 nM PLN and 0.21 nM TLN. Time-dependent inhibitory experiments without and with 100 μM of testing compounds were performed as follows. Compounds were either pre-incubated with the proteases for 15, 30 and 45 min at room temperature and the enzymatic reaction was started by adding the substrate, or not pre-incubated, i.e., the reaction was started by adding the protease to the mixture of substrate and compound. Control tests without compound present were performed in the same way. The reaction was followed for 30 min at 37 °C.
Enzymes with and without inhibitor were pre-incubated for 30 min at room temperature, and initial rate assays were performed as described above. Assays were performed using a Clario Star microplate reader (CLARIOstar® BMG LABTECH). The IC50 values were calculated in Graph Pad Prism 5 using Equation (1):(1) vi/v0=1/(1+10^(pIC50−pI)) where vi is the enzyme activity in the presence of inhibitor, v0 the activity in the absence of inhibitor, pI = −log [Inhibitor] in M and pIC50 = −log IC50 in M. All experiments were performed in at least triplicate.

[2] = target: T2, MMP-14 (Homo sapiens, UniProt P50281); experiment: Time-dependent slow, reversible/irreversible binding of TPA to MMP-14 (pre-incubation and micro-dialysis); assay type: biochemical; settings: for vi/v0 MMP-14: 100 μM TPA
T2 construct: human MT1-MMP/MMP-14 (catalytic domain); purchased Calbiochem (San Diego, CA, USA)
Description: We tested if TPA is a time-dependent irreversible or reversible inhibitor of MMP-14. In these experiments, two different concentrations of MMP-14 (45 and 5.6 nM) were pre-incubated up to 48 min at 37 °C with 10.0 and 11.1 μM of TPA, respectively, as described in Materials and Methods. As controls, the same amount of MMP-14 (without TPA but with the same concentration of DMSO) was identically pre-incubated at 37 °C. […] In the presence of 100 μM TPA, vi/v0 was 0.61 after 2 min and 0.03 after 11 min pre-incubation at 37 °C. To determine whether the observed time-dependent inhibition was due to reversible or irreversible inhibition, a solution of 45 nM MMP-14 was first pre-incubated for approximately 40 min at 37 °C with 10 μM TPA (1% DMSO in assay buffer, pH 7.5). As a control, MMP-14 (without TPA but with the same concentration of DMSO) was also pre-incubated for approximately 40 min at 37 °C. […]
In pre-incubation tests with high concentration of MMP-14, 90 μL 50 nM MMP-14 was mixed with 9.0 μL 110 μM TPA (dissolved in 0.1 M Hepes pH 7.5 containing 10 mM CaCl2, 0.005% Brij-35 and 10% DMSO) and incubated at 37 °C for up to 48 min. […] At different time points, 10 μL of the enzyme (with and without TPA) was added to 90 μL of 0.1 M Hepes pH 7.5 containing 10 mM CaCl2, 0.005% Brij-35 and 11.1 μM ES001 and the initial rate reaction velocity (v) was determined as described in Section 3.4. using a Perkin Elmer LS 50 Luminescence spectrometer. […]
In pre-incubation tests with a low concentration of MMP-14, 60 μL 50 nM MMP-14 was mixed with 420 μL 0.1 M Hepes pH 7.5 (containing 10 mM CaCl2, 0.005% Brij-35) and 60 μL of either 0.1 M Hepes pH 7.5 containing 10 mM CaCl2, 0.005% Brij-35 and 10% DMSO (control) or 60 μL 100 μM TPA (dissolved in 0.1 M Hepes pH 7.5 containing 10 mM CaCl2, 0.005% Brij-35 and 10% DMSO). At different time points, 90 μL of the enzyme (with and without TPA) was mixed with 10 μL 100 μM ES001 and the initial rate of the reaction was determined as described above. […]

T1 sequence (P14756 198-498): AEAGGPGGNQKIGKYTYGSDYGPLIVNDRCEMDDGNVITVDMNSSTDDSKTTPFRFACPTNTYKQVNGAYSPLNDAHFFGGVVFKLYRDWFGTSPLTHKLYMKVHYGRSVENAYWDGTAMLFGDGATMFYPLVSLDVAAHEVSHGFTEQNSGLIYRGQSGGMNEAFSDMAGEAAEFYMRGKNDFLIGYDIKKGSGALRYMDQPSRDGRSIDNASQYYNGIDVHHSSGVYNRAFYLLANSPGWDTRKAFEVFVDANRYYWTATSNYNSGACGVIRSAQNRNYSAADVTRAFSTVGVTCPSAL

With `c1ccc(CN(Cc2ccccn2)Cc2ccccn2)nc1` [TPA, tri(2-pyridinemethyl)amine, reference compound] the Ki [1] was 5 ± 2 µM, the “vi/v0 MMP-14” value ([2]; 2 min pre-incubation at 37 °C) was 0.61 and the “vi/v0 MMP-14” value ([2]; 11 min pre-incubation at 37 °C) was 0.03. For the same molecule, the “type of inhibition of MMP-14” value ([2]; pre-incubation 37 °C, micro-dialysis 4 °C) was “slow, reversible inhibitor”.

From publication PMC8746695, “Zinc-Chelating Compounds as Inhibitors of Human and Bacterial Zinc Metalloproteases” (Molecules, 2021)
